35 molecules from ChEMBL document CHEMBL3286106, “Design and synthesis of 6-oxo-1,4,5,6-tetrahydropyrimidine-5-carboxylate derivatives as neuraminidase inhibitors” (Eur J Med Chem, 2014) can be followed below.

Each structure is given as a SMILES string. pIC50: −log10 of the molar value.

One assay deals with Neuraminidase (Influenza A virus, UniProt B4URF0). The assay can be described thus: Inhibition of Influenza A H1N1 virus neuraminidase after 1 hr by spectrofluorimetry using 2-(4-meythylumbelliferyl)-alpha-D-acetylneuramic acid as substrate.
A short description of assay [1]: Cytotoxicity against human L02 cells after 48 hrs by MTT assay. Format: cell-based. Conditions: L02, 48 h. Background: Tetrazolium dyes change colour on reduction, which living cells bring about.
In assay [2] the target is Neuraminidase (Influenza A virus) (UniProt B4URF0). As to the kind of experiment: Inhibition of Influenza A H1N1 virus neuraminidase at 8 uM after 1 hr by spectrofluorimetry using 2-(4-meythylumbelliferyl)-alpha-D-acetylneuramic acid as substrate.
Assay [3] shares this target. The assay can be described thus: Inhibition of Influenza A H1N1 virus neuraminidase at 40 uM after 1 hr by spectrofluorimetry using 2-(4-meythylumbelliferyl)-alpha-D-acetylneuramic acid as substrate.
For assay [4] the target is unchanged. As to the kind of experiment: Inhibition of Influenza A H1N1 virus neuraminidase at 1.6 uM after 1 hr by spectrofluorimetry using 2-(4-meythylumbelliferyl)-alpha-D-acetylneuramic acid as substrate.
The target is the same in assay [5]. As to the kind of experiment: Inhibition of Influenza A H1N1 virus neuraminidase at 200 uM after 1 hr by spectrofluorimetry using 2-(4-meythylumbelliferyl)-alpha-D-acetylneuramic acid as substrate.
Assay [6] has the same target. As to the kind of experiment: Inhibition of Influenza A H1N1 virus neuraminidase at 20 nM after 1 hr by spectrofluorimetry using 2-(4-meythylumbelliferyl)-alpha-D-acetylneuramic acid as substrate.
Assay [7] shares this target. As to the kind of experiment: Inhibition of Influenza A H1N1 virus neuraminidase at 0.16 nM after 1 hr by spectrofluorimetry using 2-(4-meythylumbelliferyl)-alpha-D-acetylneuramic acid as substrate.
Assay [8] has the same target. The assay can be described thus: Inhibition of Influenza A H1N1 virus neuraminidase at 0.8 nM after 1 hr by spectrofluorimetry using 2-(4-meythylumbelliferyl)-alpha-D-acetylneuramic acid as substrate.
Assay [9] has the same target. The assay can be described thus: Inhibition of Influenza A H1N1 virus neuraminidase at 100 nM after 1 hr by spectrofluorimetry using 2-(4-meythylumbelliferyl)-alpha-D-acetylneuramic acid as substrate.
For assay [10] the target is unchanged. The assay can be described thus: Inhibition of Influenza A H1N1 virus neuraminidase at 4 nM after 1 hr by spectrofluorimetry using 2-(4-meythylumbelliferyl)-alpha-D-acetylneuramic acid as substrate.

Chain of Neuraminidase (Influenza A virus) (B4URF0 as listed by the source): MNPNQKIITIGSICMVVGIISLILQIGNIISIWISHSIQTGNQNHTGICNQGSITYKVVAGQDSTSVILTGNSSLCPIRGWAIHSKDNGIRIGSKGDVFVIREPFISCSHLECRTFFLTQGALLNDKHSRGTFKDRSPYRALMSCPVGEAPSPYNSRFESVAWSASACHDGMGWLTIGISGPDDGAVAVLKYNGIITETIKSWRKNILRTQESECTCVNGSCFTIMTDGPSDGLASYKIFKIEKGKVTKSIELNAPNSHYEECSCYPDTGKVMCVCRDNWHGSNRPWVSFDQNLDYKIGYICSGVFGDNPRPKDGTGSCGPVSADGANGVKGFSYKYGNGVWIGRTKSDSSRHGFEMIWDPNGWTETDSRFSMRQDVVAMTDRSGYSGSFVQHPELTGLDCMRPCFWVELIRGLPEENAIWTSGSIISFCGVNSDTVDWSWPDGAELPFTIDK
Chain of Neuraminidase (B4URF0 whole entry): as the sequence (B4URF0 as listed by the source) above

The term pIC50 denotes −log10 of the IC50, conventionally taken in molar units. High values mean a small IC50, low ones a large IC50. As to `CCOC(=O)C1C(=O)NC(NC(C)=O)=NC1c1ccc(Br)cc1` (centres undefined), at Neuraminidase, the pIC50 is 4.15.

`CCOC(=O)C1C(=O)NC(N)=NC1c1ccc(F)cc1` (centres undefined): the pIC50 on Neuraminidase is 3.84.

The term inhibition denotes how much of the control response was suppressed. Consider `CCOC(=O)C1C(=O)NC(NC(C)=O)=NC1c1ccccc1[N+](=O)[O-]` (centres undefined), for which the pIC50 in assay [1] is below 2.00; at Neuraminidase, 4.75. Moreover, the inhibition in [2] was 25%; in assay [3], 53%; in [4] it was 8%; in [5] it was 82%.

In the case of `CCOC(=O)C1C(=O)NC(N)=NC1c1ccccc1Cl` (centres undefined), the pIC50 against Neuraminidase was 4.06.

`CCOC(=O)C1C(=O)NC(N)=NC1c1ccco1` (centres undefined): on Neuraminidase, the pIC50 was below 3.70.

`CCOC(=O)C1C(=O)NC(NC(C)=O)=NC1c1ccco1` (centres undefined) gave a pIC50 at Neuraminidase below 3.70.

Molecule `CCOC(=O)C1C(=O)NC(NC(=O)CC)=NC1c1ccc(Br)cc1` (centres undefined) showed a pIC50 against Neuraminidase of 3.97.

In turn, `CCOC(=O)C1C(=O)NC(NC(C)=O)=NC1c1ccc(F)cc1` (centres undefined) gave a pIC50 against Neuraminidase of 4.02.

`CCOC(=O)C1C(=O)NC(NC(=O)C(F)(F)F)=NC1c1ccc(Br)cc1` (centres undefined) gave a pIC50 at Neuraminidase of 4.16.

`CCOC(=O)C1C(=O)NC(NC(C)=O)=NC1C(C)C` (centres undefined) gave a pIC50 at Neuraminidase below 3.70.

For `CCOC(=O)C1=C[C@@H](OC(CC)CC)[C@H](NC(C)=O)[C@@H](N)C1`, the inhibition in [6] was determined as 97%; in [7] it was 17%; in assay [8], 51%; in assay [9], 99%; in assay [10] it was 84%.

On Neuraminidase, `CCOC(=O)C1C(=O)NC(NC(C)=O)=NC1c1ccc(OC)cc1` (centres undefined) gave a pIC50 of 3.78.

On to `CCOC(=O)C1C(=O)NC(N)=NC1c1ccc(Br)cc1F` (centres undefined), for which the pIC50 on Neuraminidase is 3.92.

Regarding `CCOC(=O)C1C(=O)NC(N)=NC1c1ccccc1` (centres undefined), the pIC50 at Neuraminidase was 3.89.

`CCOC(=O)C1C(=O)NC(N)=NC1c1ccc(Cl)cc1Cl` (centres undefined) had a pIC50 on Neuraminidase of 3.92.

As to `CCOC(=O)C1C(=O)NC(NC(C)=O)=NC1c1ccccc1F` (centres undefined), the pIC50 on Neuraminidase is 4.33.

As for `CCOC(=O)C1C(=O)NC(N)=NC1c1ccc(N(C)C)cc1` (centres undefined), the pIC50 against Neuraminidase is below 3.70.

`CCOC(=O)C1C(=O)NC(N)=NC1c1ccccc1[N+](=O)[O-]` (centres undefined) gave a pIC50 against Neuraminidase of 4.12.

Molecule `CCOC(=O)C1C(=O)NC(NC(C)=O)=NC1c1ccccc1` (centres undefined) showed a pIC50 at Neuraminidase of 4.24. The pIC50 values of the last two molecules are within 0.2 log units of each other.

The molecule `CCOC(=O)C1C(=O)NC(NC(C)=O)=NC1c1ccc(C)cc1` (centres undefined) had a negative logarithm of the IC50 (pIC50) at Neuraminidase of 3.78.

For the molecule `CCOC(=O)C1C(=O)NC(N)=NC1c1ccc([N+](=O)[O-])cc1` (centres undefined), on Neuraminidase, the pIC50 was 3.72.

On Neuraminidase, `CCOC(=O)C1C(=O)NC(NC(C)=O)=NC1c1ccc([N+](=O)[O-])cc1` (centres undefined) had a pIC50 of 3.84.

On to `CCOC(=O)C1C(=O)NC(N)=NC1C(C)C` (centres undefined), for which, on Neuraminidase, the pIC50 is below 3.70.

`CCOC(=O)C1C(=O)NC(NC(C)=O)=NC1c1ccccc1Cl` (centres undefined) had a pIC50 on Neuraminidase of 4.44.

Regarding `CCOC(=O)C1C(=O)NC(NC(C)=O)=NC1c1ccc(Br)cc1F` (centres undefined), the pIC50 in assay [1] is below 2.00; on Neuraminidase, 4.53. The inhibition in assay [2] is 24%; in assay [3] it was 52%; in assay [4], 7%; in [5] it was 86%.

In turn, `CCOC(=O)C1C(=O)NC(N)=NC1c1ccc(Br)cc1` (centres undefined) showed a pIC50 against Neuraminidase of 3.90.

Consider `CCOC(=O)C1C(=O)NC(N)=NC1c1ccc(OC)c(OC)c1` (centres undefined), for which the negative-log IC50 (pIC50) at Neuraminidase is below 3.70.

For `CCOC(=O)C1C(=O)NC(NC(C)=O)=NC1c1ccc(Cl)cc1Cl` (centres undefined), the pIC50 in [1] is below 2.00; against Neuraminidase, 4.55. Also, the inhibition was found to be 38% in [2], 61% in assay [3], 8% in assay [4] and 94% in assay [5].

`CCOC(=O)C1C(=O)NC(N)=NC1c1ccccc1F` (centres undefined) had a pIC50 at Neuraminidase of 4.05.

In turn, `CCOC(=O)C1C(=O)NC(N)=NC1c1ccc(OC)cc1` (centres undefined) showed a pIC50 on Neuraminidase below 3.70.

Turning to `CCOC(=O)C1C(=O)NC(NC(C)=O)=NC1c1ccc(N(C)C)cc1` (centres undefined), the negative-log IC50 (pIC50) against Neuraminidase is 3.86.

`CCOC(=O)C1C(=O)NC(N)=NC1c1ccc(Cl)cc1` (centres undefined) gave a pIC50 against Neuraminidase of 3.96.

`CCOC(=O)C1C(=O)NC(N)=NC1c1ccc(C)cc1` (centres undefined) gave a pIC50 on Neuraminidase below 3.70.

Regarding `CCOC(=O)C1C(=O)NC(NC(C)=O)=NC1c1ccc(Cl)cc1` (centres undefined), the pIC50 against Neuraminidase was 4.05.

`CCOC(=O)C1C(=O)NC(NC(C)=O)=NC1c1ccc(OC)c(OC)c1` (centres undefined): the negative-log IC50 (pIC50) at Neuraminidase was below 3.70.
